In patent US20050245563A1 (Millennium Pharmaceuticals, Inc., priority 2003, published 2005):

biological target: T1, human Chk1 (GST-Chk1) (Homo sapiens, UniProt O14757); assay: Chk1 FlashPlate kinase assay; format: biochemical; settings: 8.7 nM GST-Chk1, 1 uM ATP, 33P incorporation into peptide substrate
T1 construct: made in house; host or cells: insect cells (baculovirus, Bac-to-Bac)
T1 sequence (O14757 1-476): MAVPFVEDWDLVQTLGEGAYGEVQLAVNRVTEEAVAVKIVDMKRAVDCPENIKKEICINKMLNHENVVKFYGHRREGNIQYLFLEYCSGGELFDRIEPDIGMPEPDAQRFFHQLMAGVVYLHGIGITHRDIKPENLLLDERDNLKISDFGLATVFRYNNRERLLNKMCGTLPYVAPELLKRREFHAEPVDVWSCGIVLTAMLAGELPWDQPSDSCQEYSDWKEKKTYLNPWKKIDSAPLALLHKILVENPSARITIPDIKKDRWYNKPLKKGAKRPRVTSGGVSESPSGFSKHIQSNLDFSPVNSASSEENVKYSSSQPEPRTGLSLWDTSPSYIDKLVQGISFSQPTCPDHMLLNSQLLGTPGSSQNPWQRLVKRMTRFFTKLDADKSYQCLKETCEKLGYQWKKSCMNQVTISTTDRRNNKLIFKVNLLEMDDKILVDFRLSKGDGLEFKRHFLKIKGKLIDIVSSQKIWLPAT
How it was run: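 GST-tagged human Chk1 (8.7 nM), baculovirus-expressed, with 3 uM biotinylated peptide, 1 uM ATP plus ^33P-γ-ATP, in MES/EGTA pH 8.0, DTT, Tween 20, 4% DMSO; 30 min at room temperature. EDTA-stopped; phosphopeptide captured on streptavidin FlashPlates and ^33P counted by scintillation.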

`Cc1[nH]nc2c1c(=O)n(CCCNC(=O)[C@@H](N)Cc1ccc(F)cc1)c1ccccc21` [Example 104, 2-Amino-3-(4-fluoro-phenyl)-N-[3-(3-methyl-4-oxo-2,4-dihydro-pyrazolo[4,3-c]quinolin-5-yl)-propyl]-propionamide] and `Cc1[nH]nc2c1c(=O)n(CCCNC(=O)C(N)Cc1ccc(O)cc1)c1ccccc21` (centres unmarked) [Example 108, 2-Amino-3-(4-hydroxy-phenyl)-N-[3-(3-methyl-4-oxo-2,4-dihydro-pyrazolo[4,3-c]quinolin-5-yl)-propyl]-propionamide] cannot be ordered by IC50: under 1000 nM for the first, under 1000 nM for the second.

First: Cc1n[nH]c2c1c(=O)n(CCNC(=O)C(N)Cc1ccccc1)c1ccccc21 (centres unmarked) [Example 105, 2-Amino-N-[2-(3-methyl-4-oxo-1,4-dihydro-pyrazolo[4,3-c]quinolin-5-yl)-ethyl]-3-phenyl-propionamide]
Second: Cc1[nH]nc2c1c(=O)n(CCCNC(=O)C(N)Cc1ccc(OCc3ccccc3)cc1)c1ccccc21 (centres unmarked) [Example 107, 2-Amino-3-(4-benzyloxy-phenyl)-N-[3-(3-methyl-4-oxo-2,4-dihydro-pyrazolo[4,3-c]quinolin-5-yl)-propyl]-propionamide]
The IC50 of the first is lower: under 1000 nM for the first, 1000 to 20000 nM for the second. The first is the more potent here.

`Cc1[nH]nc2c1c(=O)n(CCCNC(=O)CCCN)c1ccccc21` [Example 106, 4-Amino-N-[3-(3-methyl-4-oxo-2,4-dihydro-pyrazolo[4,3-c]quinolin-5-yl)-propyl]-butyramide] and `Cc1[nH]nc2c1c(=O)n(CCCNC(=O)CCN)c1ccccc21` [Example 124, 3-Amino-N-[3-(3-methyl-4-oxo-2,4-dihydro-pyrazolo[4,3-c]quinolin-5-yl)-propyl]-propionamide] cannot be ordered by IC50: under 1000 nM for the first, under 1000 nM for the second.

`NCCCn1c(=O)c2c[nH]nc2c2cc(Cl)ccc21` [Example 109, 5-(3-Amino-propyl)-8-chloro-2,5-dihydro-pyrazolo[4,3-c]quinolin-4-one] and `Cc1[nH]nc2c1c(=O)n(CCCN)c1ccc(N3CCCC3)cc21` [Example 120] cannot be ordered by IC50: under 1000 nM for the first, under 1000 nM for the second.

First: Cc1[nH]nc2c1c(=O)n(CCNS(=O)(=O)c1ccccc1)c1ccccc21 [Example 110, N-[2-(3-Methyl-4-oxo-2,4-dihydro-pyrazolo[4,3-c]quinolin-5-yl)-ethyl]-benzene sulfonamide]
Second: Cc1[nH]nc2c1c(=O)n(CCCNC(=O)OCc1ccccc1Br)c1ccccc21 [Example 119, [3-(3-Methyl-4-oxo-2,4-dihydro-pyrazolo[4,3-c]quinolin-5-yl)-propyl]-carbamic acid 2-bromo-benzyl ester]
The IC50 of the first is higher: 1000 to 20000 nM for the first, under 1000 nM for the second. The second is the more potent here.

First: Cc1[nH]nc2c1c(=O)n(CCNC(=O)N1CCOCC1)c1ccccc21 [Example 112, Morpholine-4-carboxylic acid [2-(3-methyl-4-oxo-2,4-dihydro-pyrazolo[4,3-c]quinolin-5-yl)-ethyl]-amide]
Second: Cc1[nH]nc2c1c(=O)n(CCCNC(=O)CN)c1ccccc21 [Example 122, 2-Amino-N-[3-(3-methyl-4-oxo-2,4-dihydro-pyrazolo[4,3-c]quinolin-5-yl)-propyl]-acetamide]
The IC50 of the first is higher: 1000 to 20000 nM for the first, under 1000 nM for the second. The second is the more potent here.

`CCCCNc1ccc2c(c1)c1n[nH]c(C)c1c(=O)n2CCCN` [Example 116] and `Cc1[nH]nc2c1c(=O)n(CCCN)c1ccc(N3CCN(C)CC3)cc21` [Example 121, 5-(3-Amino-propyl)-3-methyl-8-(4-methyl-piperazin-1-yl)-2,5-dihydro-pyrazolo[4,3-c]quinolin-4-one] cannot be ordered by IC50: under 1000 nM for the first, under 1000 nM for the second.

`Cc1[nH]nc2c1c(=O)n(CCCNC(=O)C(N)Cc1ccc(Cl)cc1)c1ccccc21` (centres unmarked) [Example 117, 2-Amino-3-(4-chloro-phenyl)-N-[3-(3-methyl-4-oxo-2,4-dihydro-pyrazolo[4,3-c]quinolin-5-yl)-propyl]-propionamide] and `Cc1[nH]nc2c1c(=O)n(CCCNC(=O)C(N)CCCCN)c1ccccc21` (centres unmarked) [Example 123, 2,6-Diamino-hexanoic acid [3-(3-methyl-4-oxo-2,4-dihydro-pyrazolo[4,3-c]quinolin-5-yl)-propyl]-amide] cannot be ordered by IC50: under 1000 nM for the first, under 1000 nM for the second.

Work on `Cc1[nH]nc2c1c(=O)n(CCCNC(=O)c1ccc(OC(F)(F)F)cc1)c1ccccc21` [Example 125, N-[3-(3-Methyl-4-oxo-2,4-dihydro-pyrazolo[4,3-c]quinolin-5-yl)-propyl]-4-trifluoromethoxy-benzamide] yielded an IC50 of under 1000 nM.
